Experimental data published in publication PMC5590075, “Synthesis, Antimicrobial, and Antioxidant Activities of Chalcogen-Containing Nitrone Derivatives from (R)-citronellal” (Medicines, 2017).
Converted amounts (≈) assume the structure as drawn.

What was measured:
S. aureus = tested on: S. aureus; design: method as in doi:10.1016/j.lwt.2014.05.036; settings: cited from earlier work
S. dysenteriae = tested on: S. dysenteriae; design: method as in doi:10.1016/j.lwt.2014.05.036; settings: cited from earlier work
E. coli = tested on: E. coli; design: method as in doi:10.1016/j.lwt.2014.05.036; settings: cited from earlier work
S. Typhimurium = tested on: S. Typhimurium; design: method as in doi:10.1016/j.lwt.2014.05.036; settings: cited from earlier work
L. monocytogenes = tested on: L. monocytogenes; design: method as in doi:10.1016/j.lwt.2014.05.036; settings: cited from earlier work
P. fluorescens = tested on: P. fluorescens; design: method as in doi:10.1016/j.lwt.2014.05.036; settings: cited from earlier work
[1] = design: method as in doi:10.1016/j.foodcont.2011.06.017; settings: cited from earlier work
[2] = design: method as in doi:10.1016/j.foodcont.2011.06.017; settings: cited from earlier work; remark: listed apart in the source
[3] = design: method as in doi:10.1016/j.foodcont.2011.06.017; settings: cited from earlier work; remark: listed apart in the source
[4] = tested on: Escherichia coli O157: H7 NCTC 12900; test: agar disk diffusion test; assay type: cell-based; settings: Escherichia coli, NCTC12900; E. coli O157:H7, 1.0 × 10^8 CFU.mL^−1; 20 μL compound diluted in DMSO (1:1) per 6 mm disc; streptomycin 10 µg; mean of two repetitions
Excerpt: (§1) To evaluate the antimicrobial potential of the synthesized compounds, the following reference strains of bacteria, that are economically important in foods, were employed: Gram-positive Listeria monocytogenes ATCC 7644, Staphylococcus aureus ATCC 25923, and Bacillus cereus ATCC 11778; Gram-negative Salmonella Typhimurium ATCC 14028, Escherichia coli O157: H7 NCTC 12900 and the clinically important Pseudomonas aeruginosa ATCC 15442.
(§2) The antimicrobial activity assay using the disk diffusion test was realized using the methodology that is recommended by the Clinical Laboratory Standards Institute (CLSI). The determination of the minimum inhibitory concentration (MIC) and minimum bactericidal concentration (MBC) was performed using the macro dilution tube method, in accordance with Rota et al., with modifications. Details of these assays are provided in the Supplemental Material. […]
(§3) 2.1. Antimicrobial activity assay using the disk diffusion test
(§4) The disk diffusion test followed the methodology recommended by the Clinical Laboratory Standards Institute CLSI [4]. The inoculum was standardized by standard McFarland to the concentration of 10^8 CFU.mL−1 and spread on the surface of a Petri dish containing Mueller‐Hinton (MH) agar. Then, the paper disc (6 mm) was put on a plate impregnated with 20 μL of the testing compound previously diluted in DMSO (1:1) and incubated at 37 °C for 24 hours. Zone of inhibition ≥20 mm were considered as strong inhibition, <20–12 mm as moderate inhibition, and <12 mm no inhibition. A positive control with streptomycin antibiotic (10 μg) and a negative one, with paper discs impregnated with distilled water, were used […]
(§5) 2.4. Radical Scavenging Activity […]
(§6) The ABTS radical scavenging activity was determined according to the method described by Erel. Different concentrations of compounds 5a–d and 10 (10–500 μ M) were mixed with the ABTS+ solution, and the decrease in the absorbance at 734 nm was recorded.

[5] = tested on: Listeria monocytogenes ATCC 7644; test: agar disk diffusion test; assay type: cell-based; settings: Listeria monocytogenes, ATCC7644; L. monocytogenes, 1.0 × 10^8 CFU.mL^−1; 20 μL compound diluted in DMSO (1:1) per 6 mm disc; streptomycin 10 µg; mean of two repetitions
Excerpt: as §1, §2, §3, §4, §5, §6

[6] = tested on: Pseudomonas aeruginosa ATCC 15442; test: agar disk diffusion test; assay type: cell-based; settings: Pseudomonas aeruginosa, ATCC15442; P. aeruginosa, 1.0 × 10^8 CFU.mL^−1; 20 μL compound diluted in DMSO (1:1) per 6 mm disc; streptomycin 10 µg; mean of two repetitions
Excerpt: as §1, §2, §3, §4, §5, §6

[7] = tested on: Salmonella Typhimurium ATCC 14028; test: agar disk diffusion test; assay type: cell-based; settings: Salmonella enterica; S. Typhimurium, 1.0 × 10^8 CFU.mL^−1; 20 μL compound diluted in DMSO (1:1) per 6 mm disc; streptomycin 10 µg; mean of two repetitions
Excerpt: as §1, §2, §3, §4, §5, §6

[8] = tested on: Bacillus cereus ATCC 11778; test: agar disk diffusion test; assay type: cell-based; settings: Bacillus cereus, ATCC11778; B. cereus, 1.0 × 10^8 CFU.mL^−1; 20 μL compound diluted in DMSO (1:1) per 6 mm disc; streptomycin 10 µg; mean of two repetitions
Excerpt: as §1, §2, §3, §4, §5, §6

[9] = tested on: Staphylococcus aureus ATCC 25923; test: agar disk diffusion test; assay type: cell-based; settings: Staphylococcus aureus, ATCC25923; S. aureus, 1.0 × 10^8 CFU.mL^−1; 20 μL compound diluted in DMSO (1:1) per 6 mm disc; streptomycin 10 µg; mean of two repetitions
Excerpt: as §1, §2, §3, §4, §5, §6

CC(C)=CCCC(C)(CC=O)Sc1ccc(Cl)cc1 (stereo not drawn) [3-(p-chlorophenyl)thio citronellal]
MIC (S. aureus): 2.1 mM (≈ 623 µg/mL) | MIC (S. dysenteriae): 4.2 mM (≈ 1250 µg/mL) | MIC (E. coli): 4.2 mM (≈ 1250 µg/mL) | MIC (S. Typhimurium): 4.2 mM (≈ 1250 µg/mL) | MIC (L. monocytogenes): 2.1 mM (≈ 623 µg/mL) | MIC (P. fluorescens): 4.2 mM (≈ 1250 µg/mL)

CC(C)=CCC[C@@H](C)C(C=O)[Se]c1ccccc1 (stereo partly drawn) [3b, α-phenylselenocitronellal]
concentrations with significant reducing power in the FRAP assay [1]: ≥ 500 mM | activity in the DPPH assay (in words) [2]: inactive | activity in the ABTS assay (in words) [3]: inactive

[H]/N=C(/N)N[C@H]1[C@H](O)[C@@H](O)[C@H](O[C@@H]2O[C@@H](C)[C@](O)(C=O)[C@H]2O[C@@H]2O[C@@H](CO)[C@H](O)[C@@H](O)[C@@H]2NC)[C@@H](N/C(N)=N\[H])[C@@H]1O [Streptomycin, reference compound]
zone of inhibition at 10 µg/disc [4]: 24 mm | zone of inhibition at 10 µg/disc [5]: 21 mm | zone of inhibition at 10 µg/disc [6]: 13 mm | zone of inhibition at 10 µg/disc [7]: 18 mm | zone of inhibition at 10 µg/disc [8]: 26 mm | zone of inhibition at 10 µg/disc [9]: 21 mm

CC(C)=CCC[C@@H](C)CC=O [compound 1, (R)-citronellal]
effect in the FRAP assay (in words) ([1]; at the same concentrations (equal and higher than 500 mM)): did not present any effect | activity in the DPPH assay (in words) [2]: inactive | activity in the ABTS assay (in words) [3]: inactive
